From PubChem BioAssay (NCI)
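Five compound concentrations were applied to cells in 96-well plates for 48 hours; endpoints were derived by simple linear interpolation of the resulting dose-response curve. The concentration for 50% growth inhibition is given as GI50. TGI marks complete inhibition of growth.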

Experiments:
Assay in all cases: NCI-60 cell line screen, 48 h
786-0 renal = tested on: 786-0 renal
COLO 205 colon = tested on: COLO 205 colon
MALME-3M melanoma = tested on: MALME-3M melanoma
MCF7 breast = tested on: MCF7 breast
NCI-H460 lung = tested on: NCI-H460 lung
SK-MEL-5 melanoma = tested on: SK-MEL-5 melanoma
SK-OV-3 ovarian = tested on: SK-OV-3 ovarian
SNB-75 CNS = tested on: SNB-75 CNS
DMS 114 small cell lung = tested on: DMS 114 small cell lung
SNB-78 CNS = tested on: SNB-78 CNS
LXFL 529 NSCLC = tested on: LXFL 529 NSCLC

SMILES | GI50 (786-0 renal) [µM] | TGI (786-0 renal) [µM] | GI50 (COLO 205 colon) [µM] | TGI (COLO 205 colon) [µM] | GI50 (MALME-3M melanoma) [µM] | TGI (MALME-3M melanoma) [µM] | GI50 (MCF7 breast) [µM] | TGI (MCF7 breast) [µM] | GI50 (NCI-H460 lung) [µM] | TGI (NCI-H460 lung) [µM] | GI50 (SK-MEL-5 melanoma) [µM] | TGI (SK-MEL-5 melanoma) [µM] | GI50 (SK-OV-3 ovarian) [µM] | TGI (SK-OV-3 ovarian) [µM] | GI50 (SNB-75 CNS) [µM] | TGI (SNB-75 CNS) [µM] | TGI (DMS 114 small cell lung) [µM] | TGI (SNB-78 CNS) [µM] | TGI (LXFL 529 NSCLC) [µM]
COc1cc(OC)c(C(=O)/C=C/c2cccc(C(F)(F)F)c2)c(OC)c1 | 1.66 | 5.59 | 1.06 | 2.21 | 2.38 | 8.3 | 1.12 | 7.38 | 1.08 | 2.67 | 1.07 | 2.54 | 3.03 | 9.37 | 1.88 | 7.9 | – | – | –
Nc1ccccc1C#C/C=C\C#Cc1ccccc1N | 13.7 | 42.9 | 31.3 | > 100 | 7.86 | 32.9 | 9.98 | > 100 | 6.51 | 80.4 | 1.95 | 17.5 | 23.2 | 54.9 | 29.4 | > 100 | – | – | –
COCC[C@H]1CCC/C=C/[C@@H]2C[C@H](O)C[C@H]2[C@H](O)/C=C/C(=O)O1 | 0.0234 | 0.054 | 0.0227 | 0.0472 | 0.0344 | 0.228 | 0.0437 | 0.171 | 0.39 | > 100 | 0.0172 | 0.0319 | 0.0725 | > 100 | 0.0423 | > 100 | – | – | –
O=C1C2C3C=C4c5ccccc5N(c5ccccc5)C4(C2C(=O)N1c1ccc([N+](=O)[O-])cc1)[C@H]1C(=O)N(c2ccc([N+](=O)[O-])cc2)C(=O)[C@@H]31 (stereo partly specified) | – | > 100 | – | > 100 | – | > 100 | – | – | – | > 100 | – | > 100 | – | > 100 | – | > 100 | > 100 | > 100 | –
CC1(C)C(=O)/C(=C\c2cccnc2)C[C@]2(C)[C@H]3CC[C@@H]4[C@H]5[C@H](C(=O)/C=C/c6cccnc6)CC[C@]5(C(=O)O)CC[C@@]4(C)[C@]3(C)CC[C@@H]12 | 2.36 | 5.41 | 2.33 | 5.17 | 2 | 4.46 | 2.56 | 10.7 | 2.12 | 6.69 | 1.8 | 3.22 | 3.82 | 14.5 | 4.01 | 44.2 | – | – | –
N#Cc1cc(-c2cc3ccccc3o2)oc1N | 4.74 | 22.5 | 2.06 | 4.74 | 2.45 | 6.98 | 2.66 | 15.3 | 3.03 | 10.6 | 1.52 | 3.78 | 2.38 | 7.15 | 3.61 | 15.5 | – | – | –
COc1ccc2c3c([nH]c2c1[N+](=O)[O-])C(C)N(C)CC3 (stereo unspecified) | – | > 100 | – | > 100 | – | > 100 | – | – | – | > 100 | – | > 100 | – | > 100 | – | > 100 | > 100 | > 100 | > 100
CCOC(=O)CCC(=O)C1c2cccc(O)c2C(=O)c2c(O)cc(C)cc21 (stereo unspecified) | – | 2.63 | – | 3.57 | – | 2.65 | – | – | – | 1.27 | – | 1.83 | – | 2.01 | – | 1.76 | 0.8 | 1.9 | 1.75
CCCN(CCC)C(=O)c1c([N+](=O)[O-])cc(C(F)(F)F)cc1[N+](=O)[O-] | – | > 100 | – | 39.1 | – | – | – | – | – | > 100 | – | – | – | > 100 | – | > 100 | – | > 100 | > 100
Cc1[nH]c(=O)nc2[nH][nH]c(=O)c12 | – | > 100 | – | > 100 | – | > 100 | – | – | – | > 100 | – | – | – | > 100 | – | – | > 100 | – | > 100
COc1ccc(C(=O)c2cc(C)c(OC)c(C)c2)c(OC)c1O | 0.667 | > 100 | 7.77 | 28.4 | 0.0739 | > 100 | 0.235 | > 100 | 0.0713 | 1.35 | 0.0552 | 0.292 | 0.228 | > 100 | 0.026 | > 100 | – | – | –
CCCCNC1CCCCC[C@H]1O (stereo partly specified) | – | > 100 | – | > 100 | – | – | – | – | – | > 100 | – | > 100 | – | > 100 | – | > 100 | > 100 | > 100 | > 100
COc1ccc(C(=O)c2cc(OC)c(OC)c(OC)c2)cc1/C=C/C(=O)c1ccc(F)cc1 | 2.15 | 5.57 | 5.18 | 28.1 | 2.76 | 8.87 | 2.3 | 11.1 | 16 | 52.7 | 4.31 | 15.5 | 17.9 | 73.1 | 3.18 | 20.7 | – | – | –
Cc1cc(C(=O)Nc2ccc3cc(CN4CCOCC4)ccc3n2)c(C)n1-c1ccccc1 | 4.75 | 17.9 | 1.83 | 5.07 | 1.89 | 8.66 | 1.87 | 10.8 | 2.51 | > 52.1 | 0.202 | 0.799 | 4.54 | 40.2 | 3.42 | 15.8 | – | – | –
COc1ccc(C(=O)c2cc(C)c(OC)c(C)c2)cc1OC(=O)CCl | 0.0763 | > 100 | 0.751 | 18.8 | 13.1 | 59.6 | < 0.01 | > 100 | < 0.01 | 18.5 | < 0.01 | 0.459 | < 0.0238 | > 100 | < 0.01 | > 100 | – | – | –
COC(=O)C(CC(=O)Nc1ccc(C)cc1)C(=O)C(=O)Nc1c(C(C)C)cccc1C(C)C (stereo unspecified) | – | > 100 | – | > 100 | – | > 100 | – | – | – | > 100 | – | – | – | > 100 | – | > 100 | > 100 | > 100 | > 100
CN(Cc1ccccc1)C(=O)c1ccccc1C(=O)O | – | > 100 | – | > 100 | – | > 100 | – | – | – | > 100 | – | – | – | > 100 | – | > 100 | > 100 | – | > 100
c1cnn(CN(Cn2cccn2)Cn2cccn2)c1 | – | > 100 | – | > 100 | – | – | – | – | – | > 100 | – | > 100 | – | > 100 | – | > 100 | > 100 | > 100 | –
